Measurements: patent publication US4381303A, “1,4,9,10-Tetrahydro-pyrazolo [4,3-]pyrido[-3,2-b][1,4]diazepin-10-ones” (Dr. Karl Thomae GmbH, priority 1981, dated 1983)

Tests used:
[1] = tested on: Pain of Inflammation on the Back Paw of the Rat; experiment: Activity against the pain of inflammation on the back paw of the rat (RANDALL-SELITTO); type: in vivo, rat (male Chbb:THOM-rats); conditions: po, 1.5 h, dose at which pain threshold rises by 50% vs controls, esophageal tube, 1% methyl cellulose, 90 minutes after phlogistic, 90 minutes before determination, linear regression
Experimental: (§1) were tested with regard to analgesic activity in the rat, analgesic activity in the mouse, and acute toxicity in the mouse:
1. Activity against the Pain of Inflammation on the Back Paw of the Rat
The activity against the pain caused by inflammation was tested according to the method of RANDALL-SELITTO [Arch. Int. Pharmacodyn., 111, 409 (1957)]. Male Chbb:THOM-rats having body weights of from 100 to 130 grams received a subplantar injection of 0.1 ml of a suspension of 1,12 g of dry yeast in 18.9 ml of a 5.5% glucose solution into a back paw.
At 90 minutes after injection of the phlogistic, that is, ninety minutes before determination of the pain threshold, the animals received various doses of the test substances as a trituration in 1% methyl cellulose (1 ml/100 gm of animal) through an esophageal tube. Control animals received corresponding volumes of the vehicle. The pain threshold was determined in the rat in terms of the grams of bearing pressure on a paw, based on the weight of the animal.
From the pain threshold, measured according to the various doses of the test substance, and with linear regression analysis according to LINDER [Statistische Methoden, 4th ed., pp. 148-162, Birkhauser, Basel, 1964] an ED50 was determined. The ED50 dose is one in which the pain threshold rises by 50%, as compared to the controls.

[2] = Acute toxicity in mice; type: in vivo; conditions: in vivo, po; mouse, esophageal tube, 1% methyl cellulose; deaths within 14 days; LITCHFIELD and WILCOXON
Experimental: as §1
(§2) 3. Acute Toxicity in Mice
(§3) The acute toxicity was determined in Chbb:NMRI (SPF)-mice of both sexes, having an average body weight of 20 grams. The test compounds were administered as a trituration in 1% methyl cellulose (0.2 ml/10 gm of animal) by means of an esophageal tube. The calculation of the LD50 values was effected according to the method of LITCHFIELD and WILCOXON [J. Pharmacol. Exp. Ther., 96, 99 (1949)], based upon the percentage of animals which died within 14 days after administration of different doses.

[3] = tested on: Sensitivity of the Mouse in the Hot Plate Test; experiment: Activity against the sensitivity of the mouse in the hot plate test (CHEN and BECKMAN); type: in vivo, mouse (male Chbb:NMRI (SPF)-mice); conditions: po, dose increasing time of reaction by 100%, hot plate 52° C., esophageal tube, 1% methyl cellulose, linear regression
Experimental: as §1
2. Activity against the Sensitivity of the Mouse in the Hot Plate Test
The test was performed according to the method described by CHEN and BECKMAN [Science, 113, 631 (1951)] in male Chbb:NMRI (SPF)-mice with an average weight of 20 grams.
The test substances were administered as trituration in 1% methyl cellulose (0.1 ml/10 gm of mouse) by means of an esophageal tube. Before treatment with the test substances, the animals were twice put on the hot plate at intervals of 30 to 120 minutes, whereby their individual times of reaction were measured. After treatment with a test substance, the times of reaction of the animals were again measured in intervals of 30 to 120 minutes.
From the average maximum increase of the time of reaction obtained after treatment with different doses, and after linear regression analysis according to LINDER, an ED100 dose was calculated. The ED100 dose is one which increased the time of reaction by 100%.

[4] = tested on: Chbb:NMRI (SPF)-mice; experiment: Acute toxicity in mice; type: in vivo; conditions: dose 1000 mg/kg (footnote * of Table 3), mouse, esophageal tube, within 14 days
Experimental: as §1, §2, §3

SMILES	ED50 [1] [mg/kg]	LD50 at 336 h [2] [mg/kg]	ED100 [3] [mg/kg]	animals died after administration of this dose [4]
Cc1nn(C)c2c1N(C)c1ncccc1N(C)C2=O [D, 1,4,9,10-tetrahydro-1,3,4,9-tetramethyl-pyrazolo[4,3-e]pyrido[3,2-b][1,4]diazepin-10-one]	7.4	225	–	–
Cc1nn(C)c2c1Nc1ncccc1N(C)C2=O [B, 1,4,9,10-tetrahydro-1,3,9-trimethyl-pyrazolo[4,3-e]pyrido[3,2-b][1,4]diazepin-10-one]	11	175	30	–
CCCCN1C(=O)c2c(c(C)nn2C)Nc2ncccc21 [F, 9-(n-butyl)-1,3-dimethyl-1,4,9,10-tetrahydro-pyrazolo[4,3-e]pyrido[3,2-b][1,4]diazepin-10-one]	139	> 1000	87	1 out of 8
CCN1C(=O)c2c(c(C)nn2C)N(C)c2ncccc21 [E, 9-ethyl-1,4,9,10-tetrahydro-1,3,4-trimethyl-pyrazolo[4,3-e]pyrido[3,2-b][1,4]diazepin-10-one]	5.9	202	–	–
Cc1nn(C)c2c1Nc1ncccc1NC2=O [A, 1,3-dimethyl-1,4,9,10-tetrahydro-pyrazolo[4,3-e]pyrido[3,2-b][1,4]diazepin-10-one]	26	152	15	–
CCN1C(=O)c2c(c(C)nn2C)Nc2ncccc21 [C, 1,3-dimethyl-9-ethyl-1,4,9,10-tetrahydro-pyrazolo[4,3-e]pyrido[3,2-b][1,4]diazepin-10-one]	28	171	28	–
